Key:
primary human RPE cells = assay: Primary human RPE cells challenged with OAβ: SA-β-Gal staining and qPCR; type: cell-based; conditions: 10 μM OAβ; qPCR after 3 days, SA-β-Gal after 7 days
Procedure: All experiments with primary human RPE cells were approved by the Institutional Review Board of LSUHNO and conducted in accordance with NIH guidelines. Cells were collected from anonymous donors provided by eye banks. Briefly, globes of a person, without eye pathology were obtained from NDRI within 24 hours after death from head trauma. Globes were opened, and RPE cells harvested and cultured (1, 2) and grown in MEM medium supplemented with 10% FBS, 5% NCS, non-essential amino acids, Penicillin-Streptomycin (100 U/mL), human fibroblast growth factor 10 ng/ml and incubated at 37° C. with a constant supply of 5% CO2. Cells integrity was validated as in previous study (3). For oligomeric Aβ treatment, cells were seeded in the 6-well plates, 30.000 cells/cm2. After 2 days, sub-confluent cells were treated with 10 μM OAβ or with PBS (vehicle control).
Aβ (1-42) (HFIP-treated, ANASPEC Company, Fremont, CA, USA, Cat AS-64129) was resuspended by adding 1% NH4OH/Water and DMSO to obtain a concentration 500 μM and sonicated for 10 min. […]
Cells were visualized using SA-β-Gal staining kit (Cat 9860, Cell Signaling Technology, MA, USA). […] Pictures were taken under brightfield microscope (Nikon Eclipse TS100) 200× magnification after the development of blue color, and cells counted in 10 different random fields per well. […]

ARPE-19 cells = assay: Protein abundance and apoptosis in ARPE-19 cells undergoing UOS; type: cell-based; conditions: RPE cells under UOS; sodium salt forms
Procedure: ELV-N32 or ELV-N34 indicates the sodium salt forms, and ELV-N34-Me or ELV-N32-Me indicates the methyl ester forms. ELVs induces the following effects in ARPE-19 cells undergoing UOS: (panel a) Concentration-dependent (100 and 250 nM) upregulation of SIRT1. The results are the averages of three independent experiments; (panel b) upregulation of Iduna abundance; (panel c) increased abundance of anti-apoptotic proteins Bcl-2 and Bcl-xL; (panel d) decreased abundance of pro-apoptotic proteins Bax, (panel e) Bid and (panel f) Bim. (panel g) Concentration-dependent (100 and 250 nM) upregulation of Prohibitin (type-1) by ELVs takes place. (panel h) Concentration-dependent (50, 100, 250, and 500 nM) reduction of UOS-induced apoptosis. Error bars, SEM; *p<0.05.

[1] = system: senescence, autophagy, AMD, ECM remodeling and apoptosis genes; assay: RPE and retina gene expression (qPCR) after subretinal OAβ (1-42) injection; type: in vivo, C57BL/6J WT mice; conditions: OAβ subretinally administered in WT mice
Procedure: All animal experiments were performed according to ARVO Statement for the Use of Animals in Ophthalmic and Vision Research, and the protocol was approved by LSU Health New Orleans' Institutional Animal Care and Use Committee (IACUC). 6-month-old 5×FAD mice (stock number: 34848-JAX, The Jackson Laboratory, Bar Harbor, ME, USA), co-overexpress FAD mutant forms of human amyloid precursor protein (the Swedish mutation: K670N, M671L; the Florida mutation: I716V; and the London mutation: V7171) and presenilin 1 (PS1, encoded by Psen1: M146L, L286V) transgenes under transcriptional control of the neuron-specific mouse Thy1 promoter. 5×FAD mice were hemizygotes with respect to the transgenes and non-transgenic WT littermates. Genotyping was performed by PCR of tail DNA. All analyses were carried out blind with respect to the mice genotype. […]
For the in vivo experiments, eyeballs were enucleated and anterior segment containing the cornea, lens and iris removed and the retina separated from the rest of the eyecup (RPE/choroid). […] Quantitative PCR was performed in a CFX-384 Real-Time PCR system (Bio-Rad). The expression of target genes was normalized to the geometric mean of housekeeping genes and relative expression was calculated by the comparative threshold cycle method (ΔΔCT).

[2] = methyl ester or sodium salt, cited from earlier work; for infarct volumes: administered 1 hour following 2 hours of ischemia by MCA occlusion; for cell survival / neurovascular unit disruption: administered 1 hour following 2 hours of ischemia

For CC/C=C\C[C@H](O)\C=C/C=C/C=C/[C@H](O)C/C=C\C/C=C\CCCCCCCCCCCCC(=O)O [ELV-N-32], the “OAβ-altered RPE cell morphology, SASP (SA-β-Gal staining) and expression of senescence, AMD, matrix metalloproteinase and autophagy-related genes” value (primary human RPE cells) was “reverted these effects”, the “abundance of cell damaging proteins” value (ARPE-19 cells) was “decrease abundance” and the “abundance of pro-homeostatic proteins” value (ARPE-19 cells) was “enhance abundance”. For the same compound, the “OAβ-activated senescence program (p16INK4a, MMP1, p53, p21, p27, Il-6 gene expression, SASP secretome) followed by RPE and PRC demise” value [1] was “blunt these events and elicit protection to both cells”, the infarct volumes [2] was “reduced” and the cell survival [2] was “promoted”. For the same compound, the neurovascular unit disruption [2] was “diminished”.
In the case of CC/C=C\C[C@H](O)\C=C/C=C/C=C/[C@H](O)C/C=C\C/C=C\CCCCCCCCCCCCCCC(=O)O [ELV-N-34], the “OAβ-altered RPE cell morphology, SASP (SA-β-Gal staining) and expression of senescence, AMD, matrix metalloproteinase and autophagy-related genes” value (primary human RPE cells) is reported as “reverted these effects”, the “abundance of cell damaging proteins” value (ARPE-19 cells) is reported as “decrease abundance” and the “abundance of pro-homeostatic proteins” value (ARPE-19 cells) is reported as “enhance abundance”. The “OAβ-activated senescence program (p16INK4a, MMP1, p53, p21, p27, Il-6 gene expression, SASP secretome) followed by RPE and PRC demise” value [1] was “blunt these events and elicit protection to both cells”, the infarct volumes [2] was “reduced” and the cell survival [2] was “promoted”. For the same compound, the neurovascular unit disruption [2] was “diminished”.

Reference: patent US20240075004A1, “VERY-LONG-CHAIN POLYUNSATURATED FATTY ACIDS, ELOVANOID HYDROXYLATED DERIVATIVES, AND METHODS OF USE” (The Board of Supervisors of Louisiana State University and …, priority 2020, published 2024)
